Earlier results on one compound are cited in patent publication US9918950B2, “Targeted treatment of anerobic cancer” (University Hospitals Cleveland Medical Center, priority 2012, dated 2018).

Series [1] concerns HCT116 human colon carcinoma cells. The conditions noted are these: HCT116 window chamber tumors.
The subject of series [2] is 4T1 mouse mammary carcinoma cells. The settings on record: 4T1 window chamber tumors.

On to `Nc1n[n+]([O-])c2ccccc2[n+]1[O-]` [tirapazamine], for which, in series [1] (n=8, log-rank P=0.33), the “time required for onset of incipient angiogenesis versus saline treatment” value is “No significant difference”. Besides, the “median time required for the initial hypoxic response” value in series [1] (versus 3.5 days saline, Kaplan-Meier, n=8, P<0.001) is 9.5 days; in series [2] (versus 4 days saline, n=8, P<0.05), 5.5 days. In addition, the “time required for incipient angiogenesis versus saline treatment” value in series [2] (n=8, log-rank P=0.66) is reported as “No significant difference”.
